Assay [1] relates to cholera toxin-induced secretion. Also on record: species or system Sprague-Dawley rats. The following applies: rat, in vivo.
Assay [2] relates to compleasomes (proteasome/complement complexes). The assay is described as follows: Compleasome assay in blood (sandwich ELISA, mab against AF / polyclonal against C3c). Type of assay: in vivo, Sprague-Dawley rats. The following applies: for proteasome/C3 complex (AF activity in blood) compared to controls: FIG. 10a, 5 μM phenol or leachate in drinking water for 14 days, reversed titre; for compleasome concentration (AF activity in blood): FIG. 10b, in drinking water for 14 days, 5 animals/group. Here is the method:
In another set of experiments, the rats were given water extracts of the cereals or purified phenols in their drinking water. The malted Kosack wheat was milled to flour, of which 200 g was put in a glass flask and 800 ml boiling water was successively mixed with the flour. After 3 hours of slow cooling to room temperature, the soak-water was filtered through a nylon filter and centrifuged for 30 min at 12000×g. The supernatant was frozen in 50 ml portions and diluted 1:6 with water each day during the experiment. Freeze-dried purified fractions of wheat extracts were dissolved in the drinking water. […] The drinks or the water control were given in excess over 1-14 days before testing of antisecretory activity.
Rats were given leachate from malted wheat or pure phenols in the drinking water as described above. After 14 days, blood samples were drawn as described elsewhere (Bjorck et al., 2000 and Lönnroth et al., 2016) and the antisecretory activity in blood was estimated by performing a sandwich enzyme-linked immunosorbent assay (ELISA) for detection of compleasomes (proteasome/complement complexes) in blood plasma as described elsewhere (Lonnroth et al., 2016). A monoclonal antibody (mab) against antisecretory factor was used as catching antibody and a polyclonal antibody against complement factor 3c as detecting antibody. The titre was determined after development by a secondary antibody coupled to alkaline phosphatas.

Regarding `Oc1cc2c(cc1O)CN(C(=S)NCCc1ccc(Cl)cc1)CCC2` [Capsazepine], in assay [1], the AF units was 0.8 ± 0.1 1.3 ± 0.1 AF units; the “Inhibition, %” value is reported as 38 66%; the “antisecretory activity of pure phenols (in words)” value (from here on “antisecretory activity”) is on record as “as active as guaiacol”.

Consider `COc1ccc([C@@H]2OC[C@@H]3[C@H]2CO[C@H]3c2ccc(OC)c(OC)c2)cc1OC` [Eudesmine], for which, in assay [1], the “Inhibition, %” value turned out to be 16% and the “antisecretory activity” value was “increased secretion”.

With `COc1cc(/C=C/C(=O)O)ccc1O` [Ferulic acid], in assay [2], the “proteasome/C3 complex (AF activity in blood) compared to controls” value is listed as “significantly higher”. Further, in assay [1], the AF units was determined as 1.2 ± 0.2 AF units; the “Inhibition, %” value worked out at 67%; the “antisecretory activity” value is listed as “significant antisecretory activity”.

Turning to `COc1ccccc1O` [Guaiacol, 2-methoxyphenol], the “proteasome/C3 complex (AF activity in blood) compared to controls” value in assay [2] is recorded as “significantly higher”. Further, in assay [1], the AF units is reported as 0.9 ± 0.3 1.0 ± 0.2 1.5 ± 0.2 AF units; the “Inhibition, %” value is listed as 46 51 76%; the “antisecretory activity” value was “induced antisecretory activity as early as day 1”.

Regarding `O=c1c(O)c(-c2ccc(O)c(O)c2)oc2cc(O)cc(O)c12` [Quercetin], in assay [1], the AF units came to 0.8 ± 0.1 AF units; the “Inhibition, %” value stood at 42%; the “antisecretory activity” value is recorded as “significant antisecretory activity”.

For the compound `Oc1cccc(O)c1` [Resorcinol], in assay [1], the AF units turned out to be 0.6 ± 0.1 AF units; the “Inhibition, %” value came out at 30%; the “antisecretory activity” value is “much smaller effect”.

For `OCc1ccccc1O[C@@H]1O[C@H](CO)[C@@H](O)[C@H](O)[C@H]1O` [Salicin], in assay [1], the AF units amounted to 0.3 ± 0.1 AF units; the “Inhibition, %” value was found to be 17%; the “antisecretory activity” value is recorded as “much smaller effect”.

Turning to `COc1cc(C(=O)O)ccc1O` [Vanillic acid], in assay [1], the AF units came to 1.1 ± 0.1 AF units; the “Inhibition, %” value worked out at 57%; the “antisecretory activity” value is reported as “significant antisecretory activity”.

As for `COc1ccccc1OC` [Veratrole], in assay [1], the “Inhibition, %” value amounted to 21% and the “antisecretory activity” value is listed as “induced secretion”.

As for `COc1cc(/C=C/C(=O)O)cc(OC)c1O` [sinapic acid], the “compleasome concentration (AF activity in blood)” value in assay [2] was “significant increase”.

Regarding catechin, the “compleasome concentration (AF activity in blood)” value in assay [2] is listed as “significant increase”.

The record behind these values is patent US20210204574A1, “Consumable Product Comprising Malted Wheat” (Lantmannen Functional Foods AB, priority 2018, published 2021).
